Laboratory results as given in patent US5523314A, “Compounds useful as hypoglycemic agents and for treating Alzheimer's disease” (priority 1994, dated 1996).
Counter-ions that a name gives are not always drawn. Like-named read-outs stand apart in the source and are kept apart here.

How the values were obtained:
blood glucose level = assay: Hypoglycemic activity in obese diabetic mice (Table 1); format: in vivo, male viable yellow obese-diabetic mice; conditions: for ability to lower blood glucose levels in mammals: compared to structurally similar compounds known in the art, in words; for response vs control in vivo at 50 mg/kg / response vs control in vivo at 100 mg/kg: Mus musculus, ip
Method: The hypoglycemic activity of the compounds of the present invention was determined by testing the efficacy of the compounds in vivo in male viable yellow obese-diabetic mice. The test procedure is described in detail below.
Test formulations were prepared by dissolving the test compound in a saline solution containing 2% Emulphor (a polyoxyethylated vegetable oil surfactant from GAP Corp.) to provide the dose level desired. Each test formulation was administered to six viable yellow obese-diabetic mice intraperitoneally at the beginning of the experiment. Blood glucose levels were determined immediately before the first dose and at 2 and 4 hours thereafter using glucose oxidase. A mean was taken of the 6 values obtained before the first dose and at the 2 and 4 hour intervals. In Table 1, Column 1 provides the example number of the test compound, Column 2 provides the dose level of compound tested, and Columns 3 and 4 provide a measurement of the test animal's blood glucose level 2 and 4 hours after test compound administration, respectively, as a percentage of the test animal' s pre-administration blood glucose level.

Human liver cathepsin D = target: T1, Human liver cathepsin D (Homo sapiens, UniProt P07339); assay: Cathepsin D inhibition, fluorometric assay (Tables 5 and 6); format: biochemical; conditions: for IC50: 50% inhibition of cathepsin D; for inhibition at 4.15 µg/mL (stock): Compound Stock Concentration 4.15 μg/ml; for inhibition at 8.3 µg/mL (stock): Compound Stock Concentration 8.3 μg/ml
T1 construct: purchased Athens Research and Technology, Athens, Ga; host or cells: human liver
Method: Human liver cathepsin D (Athens Research and Technology, Athens, Ga.) was diluted in assay buffer, 200 mM NaOAc, pH 4.5, 150 mM NaCl to 500 ng/mL and then 100 μL of this cathepsin D solution was added to each well of a 96 well plate with the exception of control wells which received just 100 μL of assay buffer. […] Blank and enzyme control wells each received 5 μL of the DMSO vehicle.
After incubation at 37° C. for 30 minutes, cathepsin D activity was terminated by the addition of 100 μL per well of 400 mU/mL microsomal leucine aminopeptidase (EC 3.4.11.2, Sigma, St. Louis, Mo.) in 1M Tris-HCl, pH 8.0.
Following a two hour incubation at 37° C., to allow the aminopeptidase to release the fluorophore, 7-amido-4-methylcoumarin (AMC) from the products of cathepsin D cleavage, the plates were again analyzed in the fluorometer. In order to check for potential false positives, i.e., inhibitors of microsomal leucine aminopeptidase, residual aminopeptidase activity was monitored directly in each well by the addition of 20 μL/well of 2.5 mM Leu-pNA (Bachem Biosciences, Philadelphia, Pa.) in 10% DMSO.

[1] = 2 h, 50 mg/kg, intraperitoneal, 2 hrs, read-out: Percent of Initial Blood Glucose Level After 2 hrs.
[2] = 4 h, 50 mg/kg, intraperitoneal, 4 hrs, read-out: Percent of Initial Blood Glucose Level After 4 hrs.
[3] = 50 mg/kg, intraperitoneal, 2 hrs
[4] = 50 mg/kg, intraperitoneal, 4 hrs

T1 sequence (P07339 169-412 limits assumed): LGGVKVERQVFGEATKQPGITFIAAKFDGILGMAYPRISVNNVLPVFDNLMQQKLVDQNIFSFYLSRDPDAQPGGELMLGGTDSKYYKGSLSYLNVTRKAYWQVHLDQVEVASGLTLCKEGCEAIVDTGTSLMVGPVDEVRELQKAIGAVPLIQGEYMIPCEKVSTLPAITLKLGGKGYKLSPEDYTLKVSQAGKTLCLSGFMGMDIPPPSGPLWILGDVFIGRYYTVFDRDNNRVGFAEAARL
T1 sequence (P07339 65-161 limits assumed): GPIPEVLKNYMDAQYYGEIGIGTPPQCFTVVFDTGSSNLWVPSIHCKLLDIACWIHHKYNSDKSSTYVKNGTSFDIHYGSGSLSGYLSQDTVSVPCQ

## CCCCOc1ccc(C=C2SC(=S)NC2=O)cc1 [5-[(4-butoxyphenyl)methylene]-2-thioxo-4-thiazolidinone]
Blood glucose level
  ability to lower blood glucose levels in mammals: surprising ability to lower blood glucose levels in mammals

## O=C1NC(=S)SC1=Cc1ccc2c(c1)OCO2 [Example 2, 5-[(1,3-benzodioxol-5-yl)methylene]-2-thioxo-4-thiazolidinone]
Blood glucose level; [1]
  response vs control in vivo at 50 mg/kg: 96 ± 1%
Blood glucose level; [2]
  response vs control in vivo at 50 mg/kg: 82 ± 3%

## O=C1NC(=S)SC1=Cc1ccnc2ccccc12 [Example 3, 5-[(4-quinolinyl)methylene]-2-thioxo-4-thiazolidinone]
Blood glucose level; [1]
  response vs control in vivo at 50 mg/kg: 90 ± 10%
Blood glucose level; [2]
  response vs control in vivo at 50 mg/kg: 73 ± 3%

## O=C1NC(=S)SC1=Cc1ccccc1O [Example 7, 5-[(2-hydroxyphenyl)methylene]-2-thioxo-4-thiazolidinone]
Blood glucose level; [1]
  response vs control in vivo at 50 mg/kg: 80 ± 4%
Blood glucose level; [2]
  response vs control in vivo at 50 mg/kg: 91 ± 7%

## O=C1NC(=S)SC1=Cc1ccccc1[N+](=O)[O-] [Example 9, 5-[(2-nitrophenyl)methylene]-2-thioxo-4-thiazolidinone]
Blood glucose level; [1]
  response vs control in vivo at 50 mg/kg: 91 ± 8%
Blood glucose level; [2]
  response vs control in vivo at 50 mg/kg: 83 ± 6%

## O=C1NC(=S)SC1=Cc1cccc([N+](=O)[O-])c1 [Example 10, 5-[(3-nitrophenyl)methylene]-2-thioxo-4-thiazolidinone]
Blood glucose level; [1]
  response vs control in vivo at 50 mg/kg: 89 ± 4%
Blood glucose level; [2]
  response vs control in vivo at 50 mg/kg: 80 ± 4%

## O=C1NC(=S)SC1=Cc1cccc(O)c1 [Example 11, 5-[(3-hydroxyphenyl)methylene]-2-thioxo-4-thiazolidinone]
Blood glucose level; [1]
  response vs control in vivo at 50 mg/kg: 84 ± 3%
Blood glucose level; [2]
  response vs control in vivo at 50 mg/kg: 85 ± 6%

## COc1ccc(C=C2SC(=S)NC2=O)c(OC)c1 [Example 12, 5-[(2,4-dimethoxyphenyl)methylene]-2-thioxo-4-thiazolidinone]
Blood glucose level; [1]
  response vs control in vivo at 50 mg/kg: 90 ± 7%
Blood glucose level; [2]
  response vs control in vivo at 50 mg/kg: 69 ± 6%

## O=C1NC(=S)SC1=Cc1ccc(F)cc1 [Example 13, 5-[(4-fluorophenyl)methylene]-2-thioxo-4-thiazolidinone]
Blood glucose level; [1]
  response vs control in vivo at 50 mg/kg: 94 ± 4%
Blood glucose level; [2]
  response vs control in vivo at 50 mg/kg: 88 ± 5%

## O=C1NC(=S)SC1=Cc1cccs1 [Example 14, 5-[(2-thienyl)methylene]-2-thioxo-4-thiazolidinone]
Blood glucose level; [1]
  response vs control in vivo at 50 mg/kg: 84 ± 7%
Blood glucose level; [2]
  response vs control in vivo at 50 mg/kg: 71 ± 8%

## COc1cc(C(C)=C2SC(=S)NC2=O)cc(OC)c1OC [Example 19, 5-[(3,4,5-trimethoxyphenyl)methylmethylene]-2-thioxo-4-thiazolidinone]
Blood glucose level; [3]
  Percent of Initial Blood Glucose Level After 2 hrs.: 85 ± 14%
Blood glucose level; [4]
  Percent of Initial Blood Glucose Level After 4 hrs.: 75 ± 4%

## COc1cc(C=C2SC(=S)NC2=O)ccc1O [Example 20, 5-[(3-methoxy-4-hydroxyphenyl)methylene]-2-thioxo-4-thiazolidinone]
Blood glucose level; [1]
  response vs control in vivo at 50 mg/kg: 76 ± 3%
Blood glucose level; [2]
  response vs control in vivo at 50 mg/kg: 70 ± 5%

## O=C1NC(=S)SC1=Cc1cccc(Cl)c1 [Example 23, 5-[(3-chlorophenyl)methylene]-2-thioxo-4-thiazolidinone]
Blood glucose level; [1]
  response vs control in vivo at 50 mg/kg: 74 ± 6%
Blood glucose level; [2]
  response vs control in vivo at 50 mg/kg: 90 ± 6%

## COc1ccc(C=C2SC(=S)NC2=O)cc1C [Example 27, 5-[(3-methyl-4-methoxyphenyl)methylene]-2-thioxo-4-thiazolidinone]
Blood glucose level; [1]
  response vs control in vivo at 50 mg/kg: 93 ± 3%
Blood glucose level; [2]
  response vs control in vivo at 50 mg/kg: 84 ± 6%

## O=C1NC(=S)SC1=Cc1ccccc1-c1ccccc1 [Example 29, 5-[[(1,1'-biphenyl)-2-yl]methylene]-2-thioxo-4-thiazolidinone]
Blood glucose level; [1]
  response vs control in vivo at 50 mg/kg: 84 ± 5%
Blood glucose level; [2]
  response vs control in vivo at 50 mg/kg: 77 ± 6%

## C=CCN1C(=O)C(=Cc2ccc(O)c(OC)c2)SC1=S [Example 30, 5-[(3-methoxy-4-hydroxyphenyl)methylene]-3-(2-propenyl)-2-thioxo-4-thiazolidinone]
Blood glucose level; [1]
  response vs control in vivo at 50 mg/kg: 78 ± 7%
Blood glucose level; [2]
  response vs control in vivo at 50 mg/kg: 81 ± 5%

## Cc1cccc(C=C2SC(=S)NC2=O)c1 [Example 33, 5-[(3-methylphenyl)methylene]-2-thioxo-4-thiazolidinone]
Blood glucose level; [1]
  response vs control in vivo at 50 mg/kg: 91 ± 6%
Blood glucose level; [2]
  response vs control in vivo at 50 mg/kg: 86 ± 7%

## O=C1NC(=S)SC1=Cc1ccc(Cl)c(Cl)c1 [Example 36, 5-[(3,4-dichlorophenyl)methylene]-2-thioxo-4-thiazolidinone]
Blood glucose level; [1]
  response vs control in vivo at 50 mg/kg: 81 ± 7%
Blood glucose level; [2]
  response vs control in vivo at 50 mg/kg: 90 ± 8%

## O=C1NC(=S)SC1=Cc1ccc(C(=O)O)cc1 [Example 37, 4-[(2-thioxo-4-thiazolidinone)methylene]benzoic acid]
Blood glucose level; [1]
  response vs control in vivo at 50 mg/kg: 89 ± 4%
Blood glucose level; [2]
  response vs control in vivo at 50 mg/kg: 80 ± 4%

## O=C1NC(=S)SC1=Cc1c[nH]c2ccccc12 [Example 39, 5-[(1H-indol-3-yl)methylene]-2-thioxo-4-thiazolidinone]
Blood glucose level; [1]
  response vs control in vivo at 50 mg/kg: 83 ± 4%
Blood glucose level; [2]
  response vs control in vivo at 50 mg/kg: 76 ± 4%

## COc1ccc(C=C2SC(=S)NC2=O)cc1O [Example 40, 5-[(3-hydroxy-4-methoxyphenyl)methylene]-2-thioxo-4-thiazolidinone]
Blood glucose level; [1]
  response vs control in vivo at 50 mg/kg: 78 ± 5%
Blood glucose level; [2]
  response vs control in vivo at 50 mg/kg: 72 ± 4%

## O=C1NC(=S)SC1=Cc1ccc([N+](=O)[O-])c(O)c1 [Example 43, 5-[(3-hydroxy-4-nitrophenyl)methylene]-2-thioxo-4-thiazolidinone]
Blood glucose level; [1]
  response vs control in vivo at 50 mg/kg: 92 ± 7%
Blood glucose level; [2]
  response vs control in vivo at 50 mg/kg: 88 ± 4%

## CC(=C1SC(=S)NC1=O)c1cccc(O)c1 [Example 44, 5-[(3-hydroxyphenyl)methylmethylene]-2-thioxo-4-thiazolidinone]
Blood glucose level; [3]
  Percent of Initial Blood Glucose Level After 2 hrs.: 98 ± 4%
Blood glucose level; [4]
  Percent of Initial Blood Glucose Level After 4 hrs.: 88 ± 5%

## CCOc1ccc(C=C2SC(=S)NC2=O)cc1O [Example 46, 5-[(3-hydroxy-4-ethoxyphenyl)methylene]-2-thioxo-4-thiazolidinone]
Blood glucose level; [1]
  response vs control in vivo at 50 mg/kg: 79 ± 4%
Blood glucose level; [2]
  response vs control in vivo at 50 mg/kg: 77 ± 5%

## CCCOc1ccc(C=C2SC(=S)NC2=O)cc1OCCC [Example 51, 5-[(3,4-dipropoxyphenyl)methylene]-2-thioxo-4-thiazolidinone]
Blood glucose level; [1]
  response vs control in vivo at 50 mg/kg: 89 ± 7%
Blood glucose level; [2]
  response vs control in vivo at 50 mg/kg: 85 ± 8%

## CCCCOc1ccc(C=C2SC(=S)NC2=O)cc1OC [Example 52, 5-[(3-methoxy-4-butoxyphenyl)methylene]-2-thioxo-4-thiazolidinone, sodium salt]
Blood glucose level; 4 h, read-out: Percent of Initial Blood Glucose Level After 4 hrs., 50 mg/kg, intraperitoneal, 4 hrs
  response vs control in vivo at 50 mg/kg: 61 ± 4%

## CC(C)(C)c1cc(C=C2SC(=S)N(CC(=O)O)C2=O)cc(C(C)(C)C)c1O [Example 53, 5-[[3,5-bis(1,1-dimethylethyl)-4-hydroxyphenyl]methylene]-4-oxo-2-thioxo-3-thiazolidine acetic acid]
Blood glucose level; [1]
  response vs control in vivo at 50 mg/kg: 73 ± 4%
Blood glucose level; 2 h, intraperitoneal, 2 hrs, read-out: Percent of Initial Blood Glucose Level After 2 hrs.
  response vs control in vivo at 100 mg/kg: 83 ± 9%
Blood glucose level; [2]
  response vs control in vivo at 50 mg/kg: 55 ± 5%
Blood glucose level; 4 h, intraperitoneal, 4 hrs, read-out: Percent of Initial Blood Glucose Level After 4 hrs.
  response vs control in vivo at 100 mg/kg: 80 ± 14%
Blood glucose level
  ability to lower blood glucose levels in mammals: surprising ability to lower blood glucose levels in mammals

## CCCCOc1ccc(CC2SC(=S)NC2=O)cc1OC (stereo not drawn) [Example 54, 5-[(3-methoxy-4-butoxyphenyl)methyl]-2-thioxo-4-thiazolidinone]
Blood glucose level; [1]
  response vs control in vivo at 50 mg/kg: 76 ± 7%
Blood glucose level; [2]
  response vs control in vivo at 50 mg/kg: 74 ± 6%

## CCC(C)c1cc(C=C2SC(=S)N(CC(=O)O)C2=O)cc(C(C)CC)c1O (stereo not drawn) [Example 59, 5-[[3,5-bis(1-methylpropyl)-4-hydroxyphenyl]methylene]-4-oxo-2-thioxo-3-thiazolidine acetic acid]
Blood glucose level; [1]
  response vs control in vivo at 50 mg/kg: 62 ± 5%
Blood glucose level; [2]
  response vs control in vivo at 50 mg/kg: 59 ± 9%
Blood glucose level
  ability to lower blood glucose levels in mammals: surprising ability to lower blood glucose levels in mammals

## CCOc1cc(C=C2SC(=S)NC2=O)cc(CSc2ccccc2)c1O [Example 72]
Human liver cathepsin D
  IC50: 1.7 µM
  inhibition at 4.15 µg/mL (stock): 88%
  inhibition at 8.3 µg/mL (stock): 96%

## CCOc1cc(C=C2SC(=S)N(C)C2=O)cc(CSc2ccccc2)c1O [Example 73]
Human liver cathepsin D
  IC50: 9.9 µM
  inhibition at 4.15 µg/mL (stock): 69%
  inhibition at 8.3 µg/mL (stock): 76%

## CCOc1cc(C=C2SC(=S)N(CC(=O)O)C2=O)cc(CSc2ccccc2)c1O [Example 74, 5-[[3-ethoxy-4-hydroxy-5-(methylthiophenyl)phenyl]methylene]-4-oxo-2-thioxo-3-thiazolidine acetic acid]
Human liver cathepsin D
  IC50: 5.8 µM
  inhibition at 8.3 µg/mL (stock): 95%
Human liver cathepsin D; compared to structurally similar compounds known in the art, in words
  ability to inhibit cathepsin D: surprising ability to inhibit cathepsin D levels
